According to paper PMC10047683, “A Novel Family of Lysosomotropic Tetracyclic Compounds for Treating Leukemia” (Cancers, 2023):

Experiments:
Format in all cases: cell-based
[1] = test system: HL60; test: AraC EC50 in parental and AraC resistant cells; settings: Homo sapiens
[2] = test system: KG1; test: AraC EC50 in parental and AraC resistant cells; settings: Homo sapiens
[3] = test system: SKM1; test: AraC EC50 in parental and AraC resistant cells; settings: Homo sapiens
[4] = test system: intracellular calcium in HL60 cells; test: Calcium mobilization assay (Fura2 probe); settings: 10 µM EDK-87/EDK-88, 50 µM chloroquine
Protocol: 1,000 cells of AML cell lines or 50,000 primary cells (both AML and lin-depleted UCB) were treated at the indicated concentration for 18 h, and cultured in 1 mL of MethoCult H4034 Optimum (StemCell Technologies, Vancouver, BC, Canada).
Colonies were screened based on morphology and cellularity at day 7 (cell lines) […]
Calcium mobilization assay
1 x 10^6 cells per mL were loaded for 30’ at 37 °C with the Fura-2-AM probe (Thermo Fisher) at a final 2 µM concentration in pre-warmed calcium- and magnesium-free Hanks BSA solution. Cells were then washed and resuspended in Hanks BSA solution with calcium and magnesium at 3 x 10^5 cells per mL. In parallel, 50µL of drugs in Hanks BSA solution with calcium and magnesium were added to 96-well black wall clear bottom plates and background fluorescence […]
Cells were then added to the plate
(50µL/well) and fluorescence was acquired at indicated timepoints using a Synergy HT Multi-Detection Microplate Reader (BioTek). For the analysis, all values were subtracted their corresponding background fluorescence, and the ratio 340/380 was calculated. Finally, ratios were normalized to vehicle-treated […]
Semi-Quantitative Real Time PCR

[5] = test system: Jurkat; test: Pancancer cell line panel viability; settings: 10 µM, 48 h
Protocol: (§1) First, 2 × 10^5 (72 h assays in cell lines (Supplementary File S1)), 3 × 10^5 (48 h assays in cell lines) or 7.5 × 10^5 (primary AML, healthy donor buffy coats) cells per mL were cultured in 96-well plates, and all drugs were added at the indicated concentrations. In α-tocopherol experiments, cells were treated with growing concentrations of α-tocopherol and EDK drugs for 48 h. In the NAC and 3MA experiments, treatment was simultaneous with EDK compounds. In glucose deprivation experiments, cells were cultivated with a standard medium (glucose high, 2 g/L), a standard medium without glucose, or a standard medium with galactose (2 g/L) and without glucose. Cell viability was measured via 7-AAD (eBioscience) exclusion and Hoechst33342 (Sigma-Aldrich, St. Louis, MO, USA) positivity staining via flow cytometry, and the cell count was obtained through volume. In the experiments with the primary cells, analyses were performed inside the blast population as detected via blast gates (CD45^low SSC^int). For solid tumor cell lines, viability was analyzed using CellTiter-Glo® Luminescent Cell Viability Assay (Promega).
(§2) AML cell lines and cell cultures
(§3) Cell lines HL-60 (ACC-3), KG-1 (ACC-14), MonoMac-1 (ACC-252), Kasumi-1 […]
(§4) obtained from DSMZ. Cell lines THP-1 (TIB-202TM), MCF-7 (HTB-22™), MDA- […]
(§5) 3216™) and HS-5 (CRL-11882™) were obtained from ATCC. HBL-2 cell line was kindly supplied by Dr. Pérez-Galán (IDIBAPS, Barcelona, Spain). SKM-1 and U937 were kindly provided by Dr. Marcus Buschbeck (IJC, Badalona, Spain). All cell lines were cultured in the conditions indicated by the providers, and were tested for mycoplasma on a monthly basis.
(§6) All drugs were resuspended in H2O (Thermo Fischer Scientific), DMSO (Sigma-Aldrich) or ethanol (VWR) according to manufacturer’s specifications. - tocopherol, 3-methyladenine (3MA), arsenic trioxide (ATO) and N-acetyl-L-cysteine (NAC) were purchased from Sigma Aldrich. Chloroquine diphosphate was purchased from Merck. Etoposide and ionomycin were purchased from […]
(§7) (1 picture or pasted object on this page, not shown here)

[6] = test system: HCT-15; test: Pancancer cell line panel viability; settings: 10 µM, 48 h
Protocol: as §1, §2, §3, §4, §5, §6, §7

[7] = test system: GRANTA; test: Pancancer cell line panel viability; settings: 10 µM, 48 h
Protocol: as §1, §2, §3, §4, §5, §6, §7

[8] = test system: MOLT4; test: Pancancer cell line panel viability; settings: 10 µM, 48 h
Protocol: as §1, §2, §3, §4, §5, §6, §7

[9] = test system: CAKI; test: Pancancer cell line panel viability; settings: 10 µM, 48 h
Protocol: as §1, §2, §3, §4, §5, §6, §7

[10] = test system: PC-3; test: Pancancer cell line panel viability; settings: 10 µM, 48 h
Protocol: as §1, §2, §3, §4, §5, §6, §7

[11] = test system: SR; test: Pancancer cell line panel viability; settings: 10 µM, 48 h
Protocol: as §1, §2, §3, §4, §5, §6, §7

[12] = test system: DU-145; test: Pancancer cell line panel viability; settings: 10 µM, 48 h
Protocol: as §1, §2, §3, §4, §5, §6, §7

[13] = test system: MDA-MB-435; test: Pancancer cell line panel viability; settings: 10 µM, 48 h
Protocol: as §1, §2, §3, §4, §5, §6, §7

[14] = test system: MCF-7; test: Pancancer cell line panel viability; settings: 10 µM, 48 h
Protocol: as §1, §2, §3, §4, §5, §6, §7

[15] = test system: OVCAR; test: Pancancer cell line panel viability; settings: 10 µM, 48 h
Protocol: as §1, §2, §3, §4, §5, §6, §7

[16] = test system: HOP62; test: Pancancer cell line panel viability; settings: 10 µM, 48 h
Protocol: as §1, §2, §3, §4, §5, §6, §7

[17] = test system: NCI; test: Pancancer cell line panel viability; settings: 10 µM, 48 h
Protocol: as §1, §2, §3, §4, §5, §6, §7

[18] = test system: ACHN; test: Pancancer cell line panel viability; settings: 10 µM, 48 h
Protocol: as §1, §2, §3, §4, §5, §6, §7

[19] = test system: K562; test: Pancancer cell line panel viability; settings: 10 µM, 48 h
Protocol: as §1, §2, §3, §4, §5, §6, §7

[20] = test system: U266; test: Pancancer cell line panel viability; settings: 10 µM, 48 h
Protocol: as §1, §2, §3, §4, §5, §6, §7

[21] = test system: HBL2; test: Pancancer cell line panel viability; settings: 10 µM, 48 h
Protocol: as §1, §2, §3, §4, §5, §6, §7

[22] = test system: MDA-MB-231; test: Pancancer cell line panel viability; settings: 10 µM, 48 h
Protocol: as §1, §2, §3, §4, §5, §6, §7

[23] = test system: RAMOS; test: Pancancer cell line panel viability; settings: 10 µM, 48 h
Protocol: as §1, §2, §3, §4, §5, §6, §7

[24] = test system: A549; test: Pancancer cell line panel viability; settings: 10 µM, 48 h
Protocol: as §1, §2, §3, §4, §5, §6, §7

[25] = test system: HCT-116; test: Pancancer cell line panel viability; settings: 10 µM, 48 h
Protocol: as §1, §2, §3, §4, §5, §6, §7

[26] = test system: JJN3; test: Pancancer cell line panel viability; settings: 10 µM, 48 h
Protocol: as §1, §2, §3, §4, §5, §6, §7

[27] = test system: M14; test: Pancancer cell line panel viability; settings: 10 µM, 48 h
Protocol: as §1, §2, §3, §4, §5, §6, §7

[28] = test system: HEK-293T; test: Pancancer cell line panel viability (nontumor line); settings: HEK-293T (nontumor); 10 µM; 48 h
Protocol: as §1, §2, §3, §4, §5, §6, §7

[29] = test system: HS-5; test: as above; settings: HS-5 (nontumor); 10 µM; 48 h
Protocol: as §1, §2, §3, §4, §5, §6, §7

Nc1ccn([C@@H]2O[C@H](CO)[C@@H](O)[C@@H]2O)c(=O)n1 [AraC, cytarabine]
EC50 ([1]; HL-60, HL60 AraCR (AraC resistant)): 0.22 µM
EC50 ([1]; HL-60, HL60 WT): 0.0298 µM
EC50 ([2]; KG-1, KG1 AraCR (AraC resistant)): 0.4 µM
EC50 ([2]; KG-1, KG1 WT): 0.05 µM
EC50 ([3]; SKM-1, SKM1 AraCR (AraC resistant)): 4.86 µM
EC50 ([3]; SKM-1, SKM1 WT): 0.116 µM

CCN(CC)CCCC(C)Nc1ccnc2cc(Cl)ccc12 (centres unmarked) [CHL, chloroquine, reference compound]
intracellular calcium mobilization [4]: failed to mobilize intracellular calcium
# Live cells refer to control [5]: 94%
# Live cells refer to control [6]: 77%
# Live cells refer to control [7]: 51%
# Live cells refer to control [8]: 57%
# Live cells refer to control [9]: 55%
# Live cells refer to control [10]: 63%
# Live cells refer to control [11]: 23%
# Live cells refer to control [12]: 54%
# Live cells refer to control [13]: 44%
# Live cells refer to control [14]: 54%
# Live cells refer to control [15]: 74%
# Live cells refer to control [16]: 55%
# Live cells refer to control [17]: 69%
# Live cells refer to control [18]: 93%
# Live cells refer to control [19]: 105%
# Live cells refer to control [20]: 67%
# Live cells refer to control [21]: 62%
# Live cells refer to control [22]: 50%
# Live cells refer to control [23]: 115%
# Live cells refer to control [24]: 59%
# Live cells refer to control [25]: 80%
# Live cells refer to control [26]: 84%
# Live cells refer to control [27]: 42%
# Live cells refer to control [28]: 67%
# Live cells refer to control [29]: 74%
